Results published in patent publication US5169836A, “Inhibitors of platelet binding” (Trustees of the University of Penna., priority 1988, dated 1992).
Where no end group is shown, it is not given here.

What was measured:
glycoprotein IIb = molecular target: T1, glycoprotein IIb (Homo sapiens, UniProt P08514); experiment: Binding of FITC-B1B5 to activated platelets, flow cytometry; conditions: activated platelets (ADP and epinephrine, 10 μM each)
T1 construct: endogenous in cells
T1 sequence (P08514 32-887 limits assumed): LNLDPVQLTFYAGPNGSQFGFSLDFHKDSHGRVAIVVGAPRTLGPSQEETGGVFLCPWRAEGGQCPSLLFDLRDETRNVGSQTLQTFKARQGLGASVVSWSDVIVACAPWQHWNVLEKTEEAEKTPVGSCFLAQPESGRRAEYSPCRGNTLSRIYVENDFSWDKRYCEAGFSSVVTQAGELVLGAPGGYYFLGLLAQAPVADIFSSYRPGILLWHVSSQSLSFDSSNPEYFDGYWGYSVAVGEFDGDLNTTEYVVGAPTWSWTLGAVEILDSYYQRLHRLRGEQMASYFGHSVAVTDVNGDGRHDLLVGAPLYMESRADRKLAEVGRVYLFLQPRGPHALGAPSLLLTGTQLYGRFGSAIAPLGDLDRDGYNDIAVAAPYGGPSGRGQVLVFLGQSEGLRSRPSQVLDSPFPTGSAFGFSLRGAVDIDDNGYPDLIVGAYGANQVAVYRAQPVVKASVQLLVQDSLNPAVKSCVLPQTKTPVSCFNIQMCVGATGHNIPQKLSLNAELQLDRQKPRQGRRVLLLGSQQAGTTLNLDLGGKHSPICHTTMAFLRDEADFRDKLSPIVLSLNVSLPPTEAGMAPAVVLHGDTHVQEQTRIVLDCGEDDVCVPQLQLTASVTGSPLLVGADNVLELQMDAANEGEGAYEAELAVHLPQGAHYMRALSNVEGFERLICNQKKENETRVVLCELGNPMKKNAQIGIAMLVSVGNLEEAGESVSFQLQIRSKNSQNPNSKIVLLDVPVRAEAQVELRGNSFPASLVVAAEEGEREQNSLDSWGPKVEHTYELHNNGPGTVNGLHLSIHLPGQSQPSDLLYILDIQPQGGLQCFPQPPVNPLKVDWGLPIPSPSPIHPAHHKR
Description: (§1) Gel-filtered platelets were incubated in the presence of Arg-Tyr-Asp-21mer and various FITC-labeled anti-platelet monoclonal antibodies. Monoclonal antibody binding was determined by flow cytometry. In the case of antibody AP1 (specific for platelet glycoprotein Ib) (unfilled circles), the platelets were not activated. In the case of antibodies PAC1 (specific for activated glycoproteins IIb-IIIa) (filled circles), BIB5 (specific for glycoprotein IIb) (filled squares) and S12 (specific for GMP-140) (unfilled triangles), the platelets were activated with ADP and epinephrine (10 μM each). The data shown are from a single experiment representative of two runs performed as described.
(§2) The binding of PAC1 monoclonal antibody and fibrinogen to gel-filtered human blood platelets was examined by fluorescence-activated flow cytometry using the procedures of Shattil et al., Blood, 70, 307-315 (1987). […] Then, 500 μl of the isotonic buffer was added and antibody binding was quantitated using a flow cytometer, as described in Shattil et al., Blood, 70, 307-315 (1987). Fibrinogen binding to platelets was measured using the same incubation system, except that 50 μg/ml of purified human fibrinogen as described in Bennett et al., J. Clin. Invest., 64, 1393-1400 (1979) was added and the monoclonal antibody, FITC-9F9, was used instead of FITC-PAC1. […]

[1] = molecular target: T2, blood platelet membrane fibrinogen receptor, glycoprotein IIb-IIIa (Homo sapiens, UniProt P05106+P08514); experiment: Fibrinogen binding to activated gel-filtered platelets, measured with FITC-9F9 by flow cytometry; conditions: 50 μg/ml fibrinogen
T2 construct: Venous blood from normal donors was drawn; endogenous in cells
T2 sequence (P08514 32-887 limits assumed): T1 sequence (P08514 32-887 limits assumed)
T2 sequence (P05106 27-788): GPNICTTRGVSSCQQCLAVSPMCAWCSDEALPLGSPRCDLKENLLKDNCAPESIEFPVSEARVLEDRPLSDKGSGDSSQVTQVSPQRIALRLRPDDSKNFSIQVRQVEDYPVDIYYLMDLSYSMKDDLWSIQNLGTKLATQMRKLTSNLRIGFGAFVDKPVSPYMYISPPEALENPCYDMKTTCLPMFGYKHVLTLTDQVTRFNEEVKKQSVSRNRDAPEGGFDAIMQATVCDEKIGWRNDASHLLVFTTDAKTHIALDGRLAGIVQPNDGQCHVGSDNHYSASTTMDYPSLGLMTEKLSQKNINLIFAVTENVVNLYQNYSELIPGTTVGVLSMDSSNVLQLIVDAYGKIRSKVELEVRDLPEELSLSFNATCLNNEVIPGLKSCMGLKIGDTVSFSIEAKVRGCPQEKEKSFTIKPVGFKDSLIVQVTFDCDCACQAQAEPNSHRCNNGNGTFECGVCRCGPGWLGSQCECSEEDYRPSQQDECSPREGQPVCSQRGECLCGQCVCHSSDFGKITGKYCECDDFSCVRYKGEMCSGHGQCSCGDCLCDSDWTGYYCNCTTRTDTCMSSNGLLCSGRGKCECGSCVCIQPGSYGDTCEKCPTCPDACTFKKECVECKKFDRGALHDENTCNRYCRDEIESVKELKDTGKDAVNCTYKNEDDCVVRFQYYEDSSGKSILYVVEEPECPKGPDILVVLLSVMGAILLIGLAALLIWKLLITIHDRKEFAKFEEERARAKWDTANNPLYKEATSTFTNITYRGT
Text: The binding of PAC1 monoclonal antibody and fibrinogen to gel-filtered human blood platelets was examined by fluorescence-activated flow cytometry using the procedures of Shattil et al., Blood, 70, 307-315 (1987). Venous blood from normal donors was drawn into 1/7 vol of NIH formula A acid-citrate-dextrose solution, platelet-rich plasma was obtained, and the platelets were gel-filtered into an isotonic HEPES-containing buffer at pH 7.4, as described in Shattil et al., Blood, 68, 1224-1231 (1986). […] Then, 500 μl of the isotonic buffer was added and antibody binding was quantitated using a flow cytometer, as described in Shattil et al., Blood, 70, 307-315 (1987). Fibrinogen binding to platelets was measured using the same incubation system, except that 50 μg/ml of purified human fibrinogen as described in Bennett et al., J. Clin. Invest., 64, 1393-1400 (1979) was added and the monoclonal antibody, FITC-9F9, was used instead of FITC-PAC1. […] Previous studies have established that the amount of FITC-labeled antibody bound to platelets determined by flow cytometry is related in a linear fashion to the amount of antibody bound determined in a conventional radioligand binding assay. […]
The ability of Arg-Tyr-Asp-21mer to inhibit fibrinogen binding to activated platelets was also tested. Fibrinogen binding was assessed by flow cytometry using a FITC-labeled anti-fibrinogen monoclonal antibody, 9F9. […]

platelet glycoprotein Ib = molecular target: T3, platelet glycoprotein Ib (Homo sapiens, UniProt P07359); experiment: Binding of FITC-AP1 to resting platelets, flow cytometry
T3 construct: platelet glycoprotein Ib on resting platelets; endogenous in cells
T3 sequence (P07359 17-652): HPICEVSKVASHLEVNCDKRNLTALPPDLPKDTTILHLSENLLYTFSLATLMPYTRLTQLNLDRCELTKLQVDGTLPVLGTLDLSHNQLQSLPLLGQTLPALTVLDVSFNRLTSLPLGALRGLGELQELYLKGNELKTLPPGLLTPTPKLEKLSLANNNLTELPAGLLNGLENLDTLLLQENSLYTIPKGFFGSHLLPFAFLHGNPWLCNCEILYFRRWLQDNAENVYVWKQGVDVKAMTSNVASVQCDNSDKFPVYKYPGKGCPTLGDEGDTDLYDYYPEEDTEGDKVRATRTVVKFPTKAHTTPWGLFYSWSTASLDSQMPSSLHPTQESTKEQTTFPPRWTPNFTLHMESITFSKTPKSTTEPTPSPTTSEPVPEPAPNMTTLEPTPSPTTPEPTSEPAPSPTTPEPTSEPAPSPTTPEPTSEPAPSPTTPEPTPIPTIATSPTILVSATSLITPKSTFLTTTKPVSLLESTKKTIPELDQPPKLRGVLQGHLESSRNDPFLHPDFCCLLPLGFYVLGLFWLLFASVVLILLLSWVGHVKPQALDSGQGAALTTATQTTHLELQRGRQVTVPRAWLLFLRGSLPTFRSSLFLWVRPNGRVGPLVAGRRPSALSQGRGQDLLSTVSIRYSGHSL
T3 sequence (P13224 26-206 partner): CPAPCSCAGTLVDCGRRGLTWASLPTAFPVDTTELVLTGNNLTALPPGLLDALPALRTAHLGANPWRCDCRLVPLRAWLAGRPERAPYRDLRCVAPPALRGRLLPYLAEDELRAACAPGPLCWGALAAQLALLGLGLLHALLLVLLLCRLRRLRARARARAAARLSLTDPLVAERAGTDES
T3 sequence (P14770 17-177 partner): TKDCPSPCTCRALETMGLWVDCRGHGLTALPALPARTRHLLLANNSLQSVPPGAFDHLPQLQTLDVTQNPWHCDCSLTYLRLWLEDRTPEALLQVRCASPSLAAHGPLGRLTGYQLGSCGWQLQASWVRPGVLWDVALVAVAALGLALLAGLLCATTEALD
Description: as §1, §2

GMP-140 = molecular target: T4, GMP-140 (Homo sapiens, UniProt P16109); experiment: Binding of FITC-S12 to activated platelets, flow cytometry; conditions: activated platelets (ADP and epinephrine, 10 μM each)
T4 construct: endogenous in cells
T4 sequence (P16109 42-830): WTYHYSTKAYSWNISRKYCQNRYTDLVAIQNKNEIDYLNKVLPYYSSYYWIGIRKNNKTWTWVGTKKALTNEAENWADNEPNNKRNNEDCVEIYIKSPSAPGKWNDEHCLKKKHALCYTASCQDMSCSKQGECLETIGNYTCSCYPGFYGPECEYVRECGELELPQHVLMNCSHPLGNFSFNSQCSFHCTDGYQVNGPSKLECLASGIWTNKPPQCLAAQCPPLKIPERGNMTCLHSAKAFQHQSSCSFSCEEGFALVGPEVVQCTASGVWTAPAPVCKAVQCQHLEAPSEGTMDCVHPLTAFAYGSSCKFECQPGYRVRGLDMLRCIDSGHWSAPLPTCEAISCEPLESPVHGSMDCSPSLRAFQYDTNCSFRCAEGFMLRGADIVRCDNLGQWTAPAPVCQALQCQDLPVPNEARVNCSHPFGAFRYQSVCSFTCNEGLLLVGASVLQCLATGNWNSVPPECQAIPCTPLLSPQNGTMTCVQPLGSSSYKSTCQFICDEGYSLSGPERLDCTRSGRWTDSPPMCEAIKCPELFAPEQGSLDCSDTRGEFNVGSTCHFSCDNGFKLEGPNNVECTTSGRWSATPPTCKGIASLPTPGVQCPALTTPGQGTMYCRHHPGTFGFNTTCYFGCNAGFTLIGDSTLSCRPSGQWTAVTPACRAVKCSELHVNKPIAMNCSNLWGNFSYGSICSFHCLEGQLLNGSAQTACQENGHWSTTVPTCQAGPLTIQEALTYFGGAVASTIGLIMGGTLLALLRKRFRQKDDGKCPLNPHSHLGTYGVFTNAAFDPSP
Description: as §1, §2

[2] = molecular target: T5, glycoprotein IIb-IIIa on activated platelets (Homo sapiens, UniProt P05106+P08514); experiment: Binding of FITC-PAC1 to activated gel-filtered platelets, flow cytometry; conditions: for effect on FITC-PAC1 binding: platelets activated with ADP and epinephrine (10 μM each), peptide 0-100 μM
T5 construct: Venous blood from normal donors was drawn; endogenous in cells
T5 sequence (P08514 32-887 limits assumed): T1 sequence (P08514 32-887 limits assumed)
T5 sequence (P05106 27-788): T2 sequence (P05106 27-788)
Text: The binding of PAC1 monoclonal antibody and fibrinogen to gel-filtered human blood platelets was examined by fluorescence-activated flow cytometry using the procedures of Shattil et al., Blood, 70, 307-315 (1987). Venous blood from normal donors was drawn into 1/7 vol of NIH formula A acid-citrate-dextrose solution, platelet-rich plasma was obtained, and the platelets were gel-filtered into an isotonic HEPES-containing buffer at pH 7.4, as described in Shattil et al., Blood, 68, 1224-1231 (1986). To examine the effect of synthetic peptides on PAC1 binding to activated platelets, 5×10^7 platelets were incubated for 15 min at room temperature in a final vol of 50 μl in the presence of varying concentrations of (0-100 μM) of peptide, 40 μg/ml fluorescein-labeled PAC1 (FITC-PAC1 ), 10 μM ADP and 10 μM epinephrine. Then, 500 μl of the isotonic buffer was added and antibody binding was quantitated using a flow cytometer, as described in Shattil et al., Blood, 70, 307-315 (1987). Fibrinogen binding to platelets was measured using the same incubation system, except that 50 μg/ml of purified human fibrinogen as described in Bennett et al., J. Clin. Invest., 64, 1393-1400 (1979) was added and the monoclonal antibody, FITC-9F9, was used instead of FITC-PAC1. […] Abrams et al., Blood, 70, 335a (1987). […] Shattil et al., Blood 70, 307-315 (1987). The amount of platelet-bound FITC-PAC1 or FITC-9F9 was determined by analyzing 10,000 platelets for the extent of fluorescence at 488 nm, and binding expressed as the mean fluorescence intensity in arbitrary fluorescence units.

| effect on the binding of FITC-B1B5 to glycoprotein IIb (glycoprotein IIb) | Ki ([1]; Dixon plot analysis, three experiments, ADP plus epinephrine, read-out: apparent Ki for inhibition of fibrinogen binding) [µM] | effect on the binding of FITC-AP1 to platelet glycoprotein Ib (platelet glycoprotein Ib) | effect on the binding of FITC-S12 to GMP-140 (GMP-140) | Ki ([2]; Dixon plot analysis, five separate experiments, ±SE, read-out: apparent Ki for inhibition of PAC1 binding) [µM] | IC50 ([2]; platelets activated with 10 μM ADP and 10 μM epinephrine, 40 μg/ml FITC-PAC1, 15 min, room temperature, read-out: IC50 for inhibition of the binding of FITC-PAC1 to platelets) [µM] | effect on FITC-PAC1 binding [2] | effect on 9F9 binding (fibrinogen binding) ([1]; platelets activated with ADP plus epinephrine) | Substance |
| --- | --- | --- | --- | --- | --- | --- | --- | --- |
| no effect | 5.5 ± 3.5 | no effect | no effect | 10.2 ± 4.3 | 20 to 30 | marked effect |  | ARRSPSYYRYDGAGPYYAMDY [Arg-Tyr-Asp-21mer] |
|  |  |  |  |  |  | no effect | no effect | NH2 -Tyr-Val-Asp-Gly-Asp-Gln-Cys-(Acm)-Glu-Ser-Asn-Pro-Cys-Leu-Asn-Gly-Gly-Met(O)-Cys-(Acm)-Lys-Asp-Asp-Ile-Asn-Ser-Tyr-Gly-Cys-Phe-COOH [unrelated-28mer, reference compound] |
